One compound from US20230302131A1, “MPC INHIBITION FOR PRODUCING T-CELLS WITH A MEMORY PHENOTYPE” (UNIVERSITÉ DE LAUSANNE, priority 2020, published 2023) can be followed below.

This assay concerns adult human CD8 T cells. The assay is described as follows: Adult human PBMC activation with anti-CD3/CD28 beads, T cell phenotype by flow cytometry. It counts as cell-based. The following applies: adult PBMCs, day 9, vs DMSO. How it is done: FIG. 7: MPC inhibition during the activation and culture of adult human T cells induces a memory phenotype. (A) Experimental design. PBMCs were isolated from adult healthy volunteers and activated with anti-CD3/CD28 beads in the presence of DMSO or UK5099 (25 μM). Beads were removed at day 5 and T cell phenotype was analysed at day 9. (B) Percentage of CD8 T cells expressing the memory marker CD62L. (C) The mean fluorescent intensity of CD62L in the respective positive population. (D) Percentage of CD8 T cells expressing markers that allows their identification as stem cell memory T cells (TSCM). (E-F) Mitochonrial mass (identified by MitoGreen staining, E) and mitochondrial membrane potential (TMRM, F), measured by flow cytometry and expressed as fold change as compared to DMSO. (G) Mitochondrial membrane potential normalized for the mitochondrial mass, expressed as the ratio of […], fold change as compared to DMSO. Pooled data from 2 independant experiments. ns: non-significant, *p<0.05, **[…], ***p<0.001. Data represents mean±s.e.m.
Heparinised blood was diluted with PBS and pipetted on top of Ficoll-paque (LymphoPrep). After centrifugation at 1800 rpm for 20 minutes at room temperature, the layer of cells at the intersection, containing the PBMCs was removed, washed and resuspended at 5×10^5 cells/ml of RPMI medium containing 8% human serum (AB serum), antibiotics, 2 mM L-Glutamine, 1% non-essential amino acids, 1 mM sodium pyruvate and 50 μM β-mercaptoethanol (all Gibco). Cells were activated with Human T-activator CD3/CD28 Dynabeads at a 1 bead/cell ratio with 150 IU/ml human recombinant IL2 and DMSO or 25 μM UK5099. Throughout the culture, cells were regularly split when necessary and beads were removed at day 5. At day 9, a fraction of the cells was stained with antibodies for flow cytometry analysis or for mitochondrial analysis.
On the technique in general: In flow cytometry, cells or beads pass a laser one at a time.

Turning to `CC(C)(O)CNc1nc(Nc2ccnc(C(F)(F)F)c2)nc(-c2cccc(C(F)(F)F)n2)n1` [AG221], the “mean fluorescent intensity of the CD62L signal in the CD62L-positive cells” value was “increased”. Under “UK5099 25 μM”, the “population of CD8 T cells positive for CD62L” value is “further induce”.
